What was measured:
HEK-293 cells = test: In vitro cytotoxicity, MTT assay; settings: 1% Triton-X 100, 80 μM H2O2, 48 h
Protocol: The amount of lactic acid release was quantified by using lactate assay kit (BioVision Inc., Milpitas, Calif.) following manufacturer's specifications. […] Forty microliters of MTT reagent (5 mg/ml in phosphate buffered saline) was added to each well. After 2 h of incubation at 37° C., 200 μl of dimethylsulfoxide (DMSO) was added to each well to dissolve the formazan crystals. After 5 minutes, the optical absorbance was measured at 570 nm and converted to percent viability relative to control (untreated) cells. All samples were tested in quadruplicate.
One hundred microliters of diluted nanoparticles (0.1, 0.2, 0.3, 0.4, 0.5, 0.6, and 1 mg/ml) stock solution was added to each well and incubated with the cells for 48 h, and then replaced with growth medium (160 μl). MTT reagent (40 μl) was added to each well to form formazan. After 2 h of incubation at 37° C., 200 μl of dimethylsulfoxide (DMSO) was added to each well to dissolve the formazan crystals. After 5 m optical absorbance was measured at 570 nm and converted to percent viability relative to control (untreated) cells (n=4).

[1] = at 25° C.; cited from earlier work
[2] = Solubility of organic phase solvents in water or poly(ortho ester) polymer
Xenopus laevis frogs = test: Effective dose in in vitro studies using frogs

## Triton-X 100
HEK-293 cells
  Cell viability of positive controls: 5%

## ClCCl [Dichloromethane]
[1]
  Solubility in water: Immiscible (1.6% (w/w)
[2]
  Solubility of POE (poly(ortho ester) polymer) in the organic phase solvent: Excellent solvent

## CC(C)=O [Acetone]
[1]
  Solubility in water: Very soluble
[2]
  Solubility of POE (poly(ortho ester) polymer) in the organic phase solvent: Immiscible

## asialo, galactosylated, triantennary (NA3) oligosaccharides
Xenopus laevis frogs
  Effective dose in vitro: 1 nM

## CCOC(C)=O [Ethyl acetate]
[1]
  Solubility in water: (8.7% (w/w)

## OO [H2O2]
HEK-293 cells
  Cell viability of positive controls: 8%
